Laboratory results: paper PMC11378297, “Discovery and Profiling of New Multimodal Phenylglycinamide Derivatives as Potent Antiseizure and Antinociceptive Drug Candidates” (ACS Chemical Neuroscience, 2024)

Test system: mature-BDNF (mBDNF) expression
Assay: mBDNF expression in hippocampus and cortex of PTZ-kindled mice (Western blot)
Format: in vivo, mouse
Settings: 80 mg/kg repeated, p < 0.01 vs PTZ kindling control
Text: However, there are also few reports showing opposite findings.[51],[52] […] No changes in the expression of the nerve growth factor (NGF) were observed (Figure 6D–F).
Figure 6 Changes in mature-BDNF (mBDNF) expression in hippocampus (A) and cortex (C) and in proNGF expression in hippocampus (D) and cortex (F) with representative immunoblots, together with total protein amount visualized by the stain-free technique (B,E). Data are shown as means of relative expressions + SD (n = 8). Statistical significance was evaluated by one-way ANOVA followed by Tukey’s post hoc test: **p < 0.01 (GraphPad Prism 8.4.3).
The Western Blot method was used to assess the expression of proNGF and mBDNF in the mouse brain and hippocampal tissues. Using a bead homogenizer (Bead Ruptor Elite, Omni International, USA), the cortical and hippocampal regions of the mouse brain were weighted and homogenized at a ratio of 9 μL/mg in 2% SDS supplemented with a cocktail of protease (Thermo Scientific, Walthman, MA, USA) and phosphatase inhibitors (Sigma-Aldrich, St. Louis, MO, USA). Samples were then centrifuged at 10,000g for 10 min at 4 °C after being denatured for 10 min at 95 °C. […] One-way ANOVA with Tukey’s post hoc test was utilized to examine changes in the relative expression of the proteins that were evaluated.

With CC(=O)N[C@@H](C(=O)N1CCN(c2cccc(OC(F)(F)F)c2)CC1)c1ccccc1 [(R)-32, (R)-N-(2-Oxo-1-phenyl-2-(4-(3-(trifluoromethoxy)phenyl)piperazin-1-yl)ethyl)acetamide] the “mBDNF protein expression in the hippocampus (PTZ kindling-induced overexpression)” value was “reversed the overexpression”.
